Patent US20230355625A1, “METHODS OF TREATMENT” (INTRA-CELLULAR THERAPIES, INC., priority 2019, published 2023)

Experiments:
animal models = settings: cited from earlier work
[1] = in vivo; cited from earlier work
healthy humans = settings: cited from earlier work; for fear extinction learning: humans
[2] = tested on: healthy human individuals; assay: BOLD-fMRI during the extinction phase of a fear conditioning task; format: in vivo; settings: single oral doses of 1 mg or 10 mg vs placebo; FIG. 1
Experimental: A randomized, double-blind, placebo-controlled, within-subjects study was carried out with healthy human individuals to determine whether the PDE1 inhibitors according to the present disclosure induce changes in blood oxygen level dependent functional magnetic resonance imaging (BOLD-fMRI) signals in the dorsal anterior insula (dAI) during the extinction phase of a fear conditioning task. To test these effects, Compound 1 was administered to healthy human patients. Compound 1 (ITI-214) is shown below:
The insula is a small brain region that is essential for the mind-body connection, where body sensations are translated into emotion. Anterior insula reactivity has been associated with anticipating significant events, and increased anterior insula activity has been associated with anxiety. Conditioning, including fear conditioning and extinction, is a brain activity during learning. […]
Patients were administered single oral doses of placebo, or doses of Compound 1 at 1 mg or 10 mg. Brain activity was then measured during BOLD-fMRI scanning at 3 Tesla. […] Region-of-interest (ROI) analyses for the dAI, IFG, and other prespecified regions were computed using linear mixed models in R. The brain's response is measured in each subject by fMRI scans, which is summarized in FIG. 1.

[3] = tested on: healthy human individuals; assay: BOLD-fMRI during a stop signal task; format: in vivo
Experimental: The Stop Signal task is a way to measure behavioral and neural responses to inhibitory processing.
Patients were again administered single oral doses of placebo, Compound 1 at 1 mg or 10 mg. Brain activity was then measured during BOLD-fMRI scanning at 3 Tesla. In this study, participants are presented with a visual and/or audio cue and two buttons. The subjects are instructed to press the left button as quickly as possible when an ‘X’ appears on a screen and the right button when an ‘O’ appears. Participants also are instructed not to press either button when they hear a tone, which constitute the Stop trials. There are two different kinds of Stop trials presented during the task, namely easy and hard trials. Easy trials consist of the tone cue being presented simulataneously with the visual ‘X’ or ‘O’ making it easier to suppress a response. Hard trials consist of the tone being presented after a brief delay, making it harder to process the tone and suppress a response.
This consistency provides confidence in the findings.

preclinical models = preclinical models of cognitive performance; format: in vivo

Compound | extinction of contextual fear (cognitive function) (animal models) | activation in the frontal gyrus during a stop signal task [1] | inhibitory performance during a stop signal task [1] | fear extinction learning (healthy humans) | effect on the bilateral anterior insula during a fear extinction task (healthy humans; healthy humans) | insula activity (dorsal anterior insula BOLD-fMRI signal) during fear extinction [2] | activity in the dorsolateral prefrontal cortex during stop signal task ([3]; FIG. 3) | activity in the dorsal anterior cingulate cortex during stop signal task ([3]; FIG. 4) | activity in the anterior insula during stop signal task ([3]; FIG. 5) | activation in the frontal gyrus ([3]; human, 1 mg where stated) | activation in the inferior frontal gyrus during correctly inhibited Stop trials, easy trials (correcteasy) ([3]; single oral dose 1 mg, FIG. 2) | activation in the inferior frontal gyrus during correctly inhibited Stop trials, hard trials (correcthard) ([3]; single oral dose 1 mg, FIG. 2) | cognitive performance (preclinical models) | psychomotor hyperactivity (preclinical models)
NC(=O)C[S+]([O-])C(c1ccccc1)c1ccccc1 (stereo not drawn) [modafinil] | enhanced extinction of contextual fear | increase activation | improve inhibitory performance | enhancement of fear extinction learning | – | – | – | – | – | – | – | – | – | –
COC(=O)C(c1ccccc1)C1CCCCN1 (stereo not drawn) [methylphenidate] | enhanced extinction of contextual fear | increase activation | improve inhibitory performance | enhancement of fear extinction learning | attenuating effect | – | – | – | – | – | – | – | – | –
CN1C(=O)c2c(nn(Cc3ccc(-c4cccc(F)n4)cc3)c2Nc2ccccc2)N2C1=N[C@@H]1CCC[C@@H]12 [Compound 1] | – | – | – | – | – | slightly attenuated | increased activity | increased activity | increased activity | increased activation | significantly increased activation | significantly increased activation | improved cognitive performance | without psychomotor hyperactivity
